Each structure is given as a SMILES string.

One series deals with acetylcholinesterase (AChE) (Homo sapiens, UniProt P22303). In words: AChE inhibition assay (Ellman's colorimetric method). It counts as biochemical. To be noted: read-out: Inhibiton50µM (μM±SD). Here is the method: The inhibition of acetylcholinesterase (AChE) enzymatic activity was measured using the Ellman’s colorimetric method with some alterations. Briefly, 325 μL of 50 mM Tris–HCl buffer (pH 8), 100 μL of a compound’s solution with 1% DMSO, and 25 μL of AChE (0.1 U/mL) in 50 mM Tris–HCl buffer pH 8 were incubated for 15 min. Subsequently, 75 μL of acetylthiocholine iodide (AChI) (0.023 mg/mL) and 475 μL of 3 mM 5,5′-dithiobis(2-nitrobenzoic acid) (DTNB) in Tris–HCl buffer (pH 8) containing 0.05 M NaCl and 0.021 M MgCl2 were added to initiate the reaction. The initial rate of the enzymatic reaction was quantified by measuring the absorbance at 405 nm for 5 min (V[compound]). A control reaction was carried out using 1% DMSO water solution, instead of the compound’s solution, and this initial rate was considered 100% of the enzymatic activity, Vcontrol. The percentage of AChE inhibition (I) for various concentrations of the different compounds was determined as the ratio of V[compound] and Vcontrol. For each compound, both the AChEIC50 value (the concentration that inhibits 50% of the AChE activity) and the percentage of inhibition at the compound concentration of 50 µM (Inhibition50µM) were calculated by plotting I for each compound concentration. All the assays were carried out in triplicate.
Chain of acetylcholinesterase (AChE) (P22303 32-614): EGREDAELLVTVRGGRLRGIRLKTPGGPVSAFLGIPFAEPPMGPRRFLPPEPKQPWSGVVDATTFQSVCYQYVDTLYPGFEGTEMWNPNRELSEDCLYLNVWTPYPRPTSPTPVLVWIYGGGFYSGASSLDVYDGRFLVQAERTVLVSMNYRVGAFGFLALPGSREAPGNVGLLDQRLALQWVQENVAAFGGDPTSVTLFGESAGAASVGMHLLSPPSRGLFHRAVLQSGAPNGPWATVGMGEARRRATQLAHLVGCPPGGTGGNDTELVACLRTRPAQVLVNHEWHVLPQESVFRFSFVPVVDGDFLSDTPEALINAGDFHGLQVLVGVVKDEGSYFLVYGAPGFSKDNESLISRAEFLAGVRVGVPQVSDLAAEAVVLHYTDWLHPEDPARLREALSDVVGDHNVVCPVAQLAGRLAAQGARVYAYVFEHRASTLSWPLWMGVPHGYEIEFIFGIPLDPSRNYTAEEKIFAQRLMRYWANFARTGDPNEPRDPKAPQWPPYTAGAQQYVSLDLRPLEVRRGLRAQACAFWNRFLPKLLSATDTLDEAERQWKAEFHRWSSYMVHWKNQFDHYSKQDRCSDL
On the technique in general: DTNB colorimetry detects thiols as they appear.
As to `CCCCNC1=CC(=O)c2ccccc2C1=O` [Compound 3e, 2-(butan-1-amine)-1,4-naphthoquinone], the inhibition at 50 µM stood at 48.3 ± 1.6%.

For the compound `CCN(CC)C1=CC(=O)c2ccccc2C1=O` [Compound 3f, 2-(diethylamine)-1,4-naphthoquinone], the inhibition at 50 µM is 47.9 ± 2.5%.

Consider `COc1ccc(NC2=CC(=O)C(=O)c3ccccc32)cc1` [Compound 4c], for which the inhibition at 50 µM was 45.8 ± 2.9%.

Consider `N#Cc1ccc(NC2=CC(=O)C(=O)c3ccccc32)cc1` [Compound 4d], for which the inhibition at 50 µM was 41.6 ± 2.4%.

With `CCCCNC1=CC(=O)C(=O)c2ccccc21` [Compound 4e, 4-(butan-1-amine)-1,2-naphthoquinone], the inhibition at 50 µM came to 62.4 ± 1.5%.

As for `CCN(CC)C1=CC(=O)C(=O)c2ccccc21` [Compound 4f, 4-(diethylamine)-1,2-naphthoquinone], the inhibition at 50 µM was found to be 54.7 ± 2%.

As to `O=C1C=C(Nc2ccc(Nc3ccccc3)cc2)c2ccccc2C1=O` [Compound 4g], the inhibition at 50 µM amounted to 75.3 ± 1.3%.

System in another series: not listed separately
In words: Cyclic voltammetry in acetonitrile. To be noted: Tables S1/S2, acetonitrile, 100 mV.s-1. Format: physicochemical. The source says: To obtain an insight into the electronic character of the studied naphthoquinone derivatives and to find out possible relationships with their potential biological activities, the electrochemical behavior of 1,4-NQ (1) and 1,2-NQ (2) and their 2-substituted-1,4-NQ (3a–f) and 4-substituted-1,2-NQ derivatives (4a–h), respectively, were studied by cyclic voltammetry (CV) in aprotic medium (CH3CN + TBAP, 0.1 mol.L^−^1) and the electrochemical selected data are listed in Table 3 (for complete electrochemical data, see Tables S1 and S2, supplementary material).
The redox potentials were measured by cyclic voltammetry using an EG&G Princeton Applied Research (PAR) Model 273A potentiostat/galvanostat monitored by a personal computer with the Electrochemistry PowerSuite v2.51 software from PAR. Cyclic voltammograms were obtained in 1 mM of compounds in anhydrous acetonitrile solutions containing tetrabutylammonium hexafluorophosphate (TBAPF6) 0.1 M as supporting electrolyte. A three-electrode configuration cell was used with a homemade platinum disk working electrode (1.0 mm diameter) probed by a Luggin capillary connected to a silver-wire pseudo-reference electrode and a platinum wire auxiliary electrode. The potentials were scanned from −1.8 to 1.8 V at a scan rate of 100 mV·s^−^1. All measurements were done at room temperature and the solutions were deaerated with nitrogen atmosphere before use. All the potentials reported were measured against the ferrocene/ferrocenium redox couple as internal standard and corrected to SCE (using the ferrocenium/ferrocene redox couple E1/2 = 0.40 V vs. SCE).
For `CCCCNC1=CC(=O)c2ccccc2C1=O` [Compound 3e, 2-(butan-1-amine)-1,4-naphthoquinone], the Ipa/Ipc was 1.0.

On to `CCN(CC)C1=CC(=O)c2ccccc2C1=O` [Compound 3f, 2-(diethylamine)-1,4-naphthoquinone], for which the Ipa/Ipc was 1.0.

Compound `CCN(CC)C1=CC(=O)C(=O)c2ccccc21` [Compound 4f, 4-(diethylamine)-1,2-naphthoquinone] registered an Ipa/Ipc of 0.9.

The series is the same for the next values; noted with them: Tables S1/S2, every redox process listed, acetonitrile, vs SCE, 100 mV.s-1.
In turn, `CCN(CC)C1=CC(=O)c2ccccc2C1=O` [Compound 3f, 2-(diethylamine)-1,4-naphthoquinone] yielded an E1/2 of -0.94 V and an Epc of -0.97 V.

On to `CCCCNC1=CC(=O)C(=O)c2ccccc21` [Compound 4e, 4-(butan-1-amine)-1,2-naphthoquinone], for which the E1/2 is on record as -0.71 V and the Epc is given as -0.78 V.

Turning to `CCN(CC)C1=CC(=O)C(=O)c2ccccc21` [Compound 4f, 4-(diethylamine)-1,2-naphthoquinone], the E1/2 is -0.63 V.

Still in this series, the particulars now being: Tables S1/S2, peak separation, acetonitrile, 100 mV.s-1.
Turning to `CCCCNC1=CC(=O)c2ccccc2C1=O` [Compound 3e, 2-(butan-1-amine)-1,4-naphthoquinone], the “Epa. Epc” value came out at 100 mV.

Consider `CCCCNC1=CC(=O)C(=O)c2ccccc21` [Compound 4e, 4-(butan-1-amine)-1,2-naphthoquinone], for which the “Epa. Epc” value turned out to be 150 mV.

On to `CCN(CC)C1=CC(=O)C(=O)c2ccccc21` [Compound 4f, 4-(diethylamine)-1,2-naphthoquinone], for which the “Epa. Epc” value is given as 120 mV.

Still in this series, the particulars now being: first reduction wave, acetonitrile, scan rate 0.100 V·s−1.
As for `CCCCNC1=CC(=O)c2ccccc2C1=O` [Compound 3e, 2-(butan-1-amine)-1,4-naphthoquinone], the “∆E (I)” value came to 70 mV.

In the case of `CCN(CC)C1=CC(=O)c2ccccc2C1=O` [Compound 3f, 2-(diethylamine)-1,4-naphthoquinone], the “∆E (I)” value is given as 70 mV.

The series is the same for the next values; noted with them: first reduction wave, acetonitrile, vs SCE, scan rate 0.100 V·s−1.
In the case of `CCCCNC1=CC(=O)c2ccccc2C1=O` [Compound 3e, 2-(butan-1-amine)-1,4-naphthoquinone], the “E1/2 (I)” value is given as −0.95 V and the “Epc (I)” value is listed as −0.98 V.

For the compound `CCN(CC)C1=CC(=O)c2ccccc2C1=O` [Compound 3f, 2-(diethylamine)-1,4-naphthoquinone], the “E1/2 (I)” value is on record as −0.94 V and the “Epc (I)” value is listed as −0.97 V.

As to `COc1ccc(NC2=CC(=O)C(=O)c3ccccc32)cc1` [Compound 4c], the “Epc (I)” value is recorded as −0.67 V.

As for `N#Cc1ccc(NC2=CC(=O)C(=O)c3ccccc32)cc1` [Compound 4d], the “Epc (I)” value was −0.47 V.

Turning to `CCCCNC1=CC(=O)C(=O)c2ccccc21` [Compound 4e, 4-(butan-1-amine)-1,2-naphthoquinone], the “Epc (I)” value is given as −0.78 V.

Consider `CCN(CC)C1=CC(=O)C(=O)c2ccccc21` [Compound 4f, 4-(diethylamine)-1,2-naphthoquinone], for which the “Epc (I)” value was −0.52 V.

For the compound `O=C1C=C(Nc2ccc(Nc3ccccc3)cc2)c2ccccc2C1=O` [Compound 4g], the “Epc (I)” value is −0.63 V.

The same series, now with this note: second reduction wave, acetonitrile, scan rate 0.100 V·s−1.
With `CCCCNC1=CC(=O)c2ccccc2C1=O` [Compound 3e, 2-(butan-1-amine)-1,4-naphthoquinone], the “∆E (II)” value was found to be 100 mV.

Turning to `CCN(CC)C1=CC(=O)C(=O)c2ccccc21` [Compound 4f, 4-(diethylamine)-1,2-naphthoquinone], the “∆E (II)” value is given as 120 mV.

Still in this series, the particulars now being: second reduction wave, acetonitrile, vs SCE, scan rate 0.100 V·s−1.
In the case of `CCCCNC1=CC(=O)c2ccccc2C1=O` [Compound 3e, 2-(butan-1-amine)-1,4-naphthoquinone], the “E1/2 (II)” value is −1.42 V and the “Epc (II)” value is given as −1.47 V.

For the compound `N#Cc1ccc(NC2=CC(=O)C(=O)c3ccccc32)cc1` [Compound 4d], the “Epc (II)” value is given as −0.84 V.

Regarding `CCN(CC)C1=CC(=O)C(=O)c2ccccc21` [Compound 4f, 4-(diethylamine)-1,2-naphthoquinone], the “E1/2 (II)” value is listed as −0.63 V and the “Epc (II)” value is recorded as −0.69 V.

Take `O=C1C=C(Nc2ccc(Nc3ccccc3)cc2)c2ccccc2C1=O` [Compound 4g]: the “Epc (II)” value is reported as −1.43 V.

The next series relates to HepG2 human hepatocyte carcinoma cell line. In words: MTT cytotoxicity assay against HepG2 cell line. It counts as cell-based. To be noted: HepG2, 24 h incubation, mean ± SD, read-out: EC50 (cytotoxicity, concentration leading to the death of 50% of the cells). As to the method: (§1) A hepatocellular carcinoma cell line HepG2, recognized for studying the metabolism of anticancer drugs, was used. The viability of HepG2 cell line culture after 24 h incubation with the compounds using the MTT (3-[4,5-dimethylthiazol-2-yl]-2,5-diphenyl tetrazolium bromide) assay was evaluated, and doxorubicin (Doxo) was used as a positive control.
(§2) HepG2 human hepatocyte carcinoma cell line was purchased from European Collection of Authenticated Cell Cultures (ECACC). HepG2 cells (ECACCC# 85011430) were cultured in Dulbecco’s Modified Eagle´s Medium (DMEM) supplemented with 10% fetal bovine serum, antibiotic-antimycotic (100 U/mL penicillin-streptomycin and 0.25 μg amphotericin B) and 2 mM L-glutamine at 37 °C in an atmosphere containing 5% CO2. The 3-(4,5-dimethylthiazol-2-yl)-2,5-diphenyltetrazolium bromide (MTT) method, described in Gaspar et al., [50] was used for assaying cell viability. Briefly, the cells were grown in the supplemented medium in 96-well microplates in an incubator with 5% CO2 at 37 °C, until reaching 100% confluence. After growth, the medium was replaced by the compounds’ solutions at different concentrations. The compounds were solubilized in supplemented medium containing 0.5% DMSO final concentration. Cells treated only with medium containing 0.5% DMSO served as a negative control. After 24 h incubation, the compound’s solutions were replaced by 100 µL of 0.5 mg/mL MTT solution in DMEM culture medium and incubated at 37 °C, 5% CO2 for 2–4 h. The formed formazan crystals were dissolved in 200 µL of methanol and the absorbance at 595 nm was registered against 630 nm (reference wavelength). For each concentration of the compounds, the percentage of growth inhibition/cytotoxicity was evaluated considering 100% of viability for the absorbance of the negative control. Dose-response curves for each compound were plotted using the Graph Pa Prim 4.0 software and the effective concentration leading to the death of 50% of the cells (EC50) was calculated. All experiments were replicated at least six times.
As for `COc1cccc2c1C(=O)c1c(O)c3c(c(O)c1C2=O)C[C@@](O)(C(=O)CO)C[C@@H]3O[C@H]1C[C@H](N)[C@H](O)[C@H](C)O1` [Doxorubicin, doxorubicin, reference compound], the EC50 came out at 1400 nM.

System in the next series: not listed separately
In words: MTT cytotoxicity assay against HepG2 cell line. The note with it: human, HepG2 cells, HepG2, 24 h incubation, mean ± SD, read-out: EC50 (cytotoxicity, concentration leading to the death of 50% of the cells). Format: cell-based, human. As to the method: as §1, §2
On the technique in general: Tetrazolium dyes change colour on reduction, which living cells bring about.
Turning to `CCCCNC1=CC(=O)c2ccccc2C1=O` [Compound 3e, 2-(butan-1-amine)-1,4-naphthoquinone], the EC50 at 24 h turned out to be 35.8 ± 1.5 µM.

`CCN(CC)C1=CC(=O)c2ccccc2C1=O` [Compound 3f, 2-(diethylamine)-1,4-naphthoquinone]: the EC50 at 24 h was 64.7 ± 1.4 µM.

Turning to `COc1ccc(NC2=CC(=O)C(=O)c3ccccc32)cc1` [Compound 4c], the EC50 at 24 h is 6.5 ± 1.4 µM.

With `N#Cc1ccc(NC2=CC(=O)C(=O)c3ccccc32)cc1` [Compound 4d], the EC50 at 24 h is 26.8 ± 1.1 µM.

With `CCCCNC1=CC(=O)C(=O)c2ccccc21` [Compound 4e, 4-(butan-1-amine)-1,2-naphthoquinone], the EC50 at 24 h worked out at 26.8 ± 1.1 µM.

`CCN(CC)C1=CC(=O)C(=O)c2ccccc21` [Compound 4f, 4-(diethylamine)-1,2-naphthoquinone]: the EC50 at 24 h came out at 23.1 ± 1.7 µM.

`O=C1C=C(Nc2ccc(Nc3ccccc3)cc2)c2ccccc2C1=O` [Compound 4g]: the EC50 at 24 h turned out to be 9.2 ± 2.3 µM.

`COc1cccc2c1C(=O)c1c(O)c3c(c(O)c1C2=O)C[C@@](O)(C(=O)CO)C[C@@H]3O[C@H]1C[C@H](N)[C@H](O)[C@H](C)O1` [Doxorubicin, doxorubicin, reference compound]: the EC50 at 24 h stood at 1.42 ± 1 µM.

These data come from publication PMC9919139, “Sustainable Synthesis, Antiproliferative and Acetylcholinesterase Inhibition of 1,4- and 1,2-Naphthoquinone Derivatives” (Molecules, 2023).
